Here are results for 70 compounds from the supplement of paper PMC3493320.

Each structure is given as a SMILES string.

The subject of the test is NCI-H295R. The test can be described thus: IC50 (antiproliferative, ATP content). Particulars: 48 h. An outline of the steps: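 Adrenocortical carcinoma cells in 1536-well plates (1500 per well, serum-free DMEM plus ITS, overnight culture) were exposed for 48 h at 37 °C, 5% CO2 to pin-transferred compounds at 8 final concentrations ranging 0.6 nM to 46 µM. ATP content was then read as CellTiter-Glo luminescence and normalised to vehicle and positive-control wells. The IC50 came from logistic curve fits, and any compound lacking a concentration response was recorded as above the top dose.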
As to `C[C@H]1O[C@H](O[C@H]2[C@H](O)[C@@H](O)[C@@H](O[C@H]3[C@H](O)[C@@H](O)[C@H](O)O[C@@H]3CO)O[C@@H]2CO)[C@H](O)[C@@H](O)[C@@H]1N[C@H]1C=C(CO)[C@@H](O)[C@H](O)[C@H]1O`, the IC50 was over 46 µM.
Then `N[C@@H]1CONC1=O`, with over 46 µM; and `[H][C@]1(CC3)C[C@@H](OC(C(C5=CC=CC=C5)(O)C4=CC=CC=C4)=O)C[C@]3([H])[N@+]21CCCC2.[Cl-]`, with over 46 µM.
The figure for `Clc1cccc(N2CCNCC2)c1` is over 46 µM.
The figure for `O=C(CCCN1CCC(C(=O)c2ccc(F)cc2)CC1)c1ccc(F)cc1` is over 46 µM; for `F[Si-2](F)(F)(F)(F)F.[NH4+].[NH4+]` it is over 46 µM.
In turn, `Cc1cccc(C)c1NC(=O)CN1CCCC1` displayed an IC50 of over 46 µM.
Then `CCCCCOC(=O)Nc1nc(=O)n([C@@H]2O[C@H](C)[C@@H](O)[C@H]2O)cc1F`, with over 46 µM; and `[C@]23([C@](OC(c1occc1)=O)([C@H](C)C[C@H]2[C@H]5[C@]([C@H](C3)O)([C@@]\4(\C(=C/C(/C=C/4)=O)CC5)C)Cl)C(=O)CCl)C`, with over 46 µM; and `c1ccc2sc(SSc3nc4ccccc4s3)nc2c1`, with over 46 µM.
The figure for `Cc1ccc(S(=O)(=O)NC(=O)NN2CC3CCCC3C2)cc1` (stereo not given) is over 46 µM.
As for `CN(C)CCOC(=O)COc1ccc(Cl)cc1.Cl`, the IC50 was over 46 µM.
The compound `CCOc1ccccc1C(N)=O` showed an IC50 of over 46 µM.
Turning to `NCCCC(=O)O`, the IC50 was over 46 µM.
The figure for `CN(C)CCOc1ccccc1Cc1ccccc1.O=C(O)CC(O)(CC(=O)O)C(=O)O` is over 46 µM; for `COc1cc(OC)c(C(=O)CCCN2CCCC2)c(OC)c1.Cl` it is over 46 µM; for `CN1[C@@H]2CC[C@H]1C[C@@H](OC(=O)c1cc(Cl)cc(Cl)c1)C2` it is over 46 µM.
Then `CCCCCCCCCCCCCCCCCCCCCCO`, with over 46 µM; and `C[C@H](N)[C@H](O)c1cccc(O)c1.O=C(O)[C@@H](O)[C@@H](O)C(=O)O`, with over 46 µM; and `O=[N+]([O-])C(Br)(CO)CO`, with over 46 µM.
In turn, `CNCC(O)c1ccc(OC(=O)C(C)(C)C)c(OC(=O)C(C)(C)C)c1.Cl` (stereo not given) showed an IC50 of over 46 µM.
The figure for `Cc1c(C(=O)NCCO)[n+]([O-])c2ccccc2[n+]1[O-]` is over 46 µM; for `CCCCCCCCCCCCCCCC(=O)OC[C@@H](O)[C@H]1OC[C@H](O)[C@H]1O` it is over 46 µM.
The figure for `OCC(=O)[C@@]2(O)CC[C@H]3[C@@H]4CC\C1=C\C(=O)CC[C@]1(C)[C@H]4[C@@H](O)C[C@]23C` is over 46 µM; for `Cl.NC1=NCC2c3ccccc3Cc3ccccc3N12` (stereo not given) it is over 46 µM; for `CC(=O)NO` it is over 46 µM.
Then `CC(=O)Oc1cccc2c1C(=O)c1c(OC(C)=O)cc(C(=O)O)cc1C2=O`, with over 46 µM.
In the case of `CC(C)CN(C[C@@H](O)[C@H](Cc1ccccc1)NC(=O)O[C@@H]1CCOC1)S(=O)(=O)c1ccc(N)cc1`, the IC50 was over 46 µM.
The figure for `C=CC1=C(C(=O)O)N2C(=O)[C@@H](NC(=O)C(=NOCC(=O)O)c3csc(N)n3)[C@H]2SC1` is over 46 µM; for `CC(C)(C)NCC(O)c1cc(Cl)c(N)c(Cl)c1` (stereo not given) it is over 46 µM; for `COC(=O)CC[C@H](N)C(=O)O` it is over 46 µM.
Then `NC(=O)c1ncn([C@@H]2O[C@H](CO)[C@@H](O)[C@H]2O)c1O`, with over 46 µM.
`O=C(NCCc1c[nH]c2ccccc12)c1cccnc1` registered an IC50 of over 46 µM.
`O=C1[C@@](CC2)(C)[C@@](C)(C)[C@H]2C1` had an IC50 of over 46 µM.
Then `OCCO[C@@H]1[C@@H](O)[C@H](O)[C@@H](CO)O[C@@H]1O`, with over 46 µM.
The figure for `CCOC(=O)c1ccc(OC(=O)CCCCCNC(=N)[NH3+])cc1.CS(=O)(=O)[O-]` is over 46 µM; for `CCCCC(CC)COS(=O)(=O)[O-].[Na+]` (stereo not given) it is over 46 µM.
Then `C[n+]1ccccc1C=NO.[Cl-]`, with over 46 µM; and `O=[C@@](OCN2C(N(CC#C)CC2=O)=O)[C@H]1C(C)(C)[C@@H]1\C=C(C)/C`, with over 46 µM.
The compound `O=c1n(Cl)c(=O)n(Cl)c(=O)n1Cl` had an IC50 of over 46 µM.
With `Clc1ccc2nsnc2c1NC1=NCCN1`, the IC50 was over 46 µM.
The figure for `COP(=O)(OC)OC(c1ccc(Cl)cc1)P(=O)(OC)OC` (stereo not given) is over 46 µM; for `O=[C@@]([C@@H]2CC[C@@H](CN)CC2)OC1=CC=C(CCC(O)=O)C=C1.Cl` it is over 46 µM.
Then `O[C@@H]1CO[C@H]2[C@@H]1OC[C@@H]2O`, with over 46 µM; and `NC1CCCCC1.NC1CCCCC1.O=P(O)(O)OC[C@H](O)CO`, with over 46 µM.
On to `COC(=O)c1cncn1C(C)c1ccccc1.Cl` (stereo not given), for which the IC50 is over 46 µM.
For the compound `Cc1scc2c1N(C(=O)CN1CCN(C)CC1)c1ccccc1NC2=O`, the IC50 was over 46 µM.
The figure for `Cl.Clc1ccc(C(OCCN2CCCCC2)c2ccccc2)cc1` (stereo not given) is over 46 µM.
For `O=C(C)N1[C@](C[C@](O)([H])C1)([H])[C@@](O)=O`, the IC50 is over 46 µM.
With `CCCCCCCCCCCCCCCCCCO`, the IC50 is over 46 µM.
Compound `CCn1cc(C(=O)O)c(=O)c2cc3c(cc21)OCO3` showed an IC50 of over 46 µM.
Then `C[C@H]1O[C@H]1P(=O)([O-])[O-].[Ca+2]`, with over 46 µM; and `COc1ccc(C=NNC(=O)c2ccncc2)c(C(=O)O)c1OC`, with over 46 µM.
`Cc1cccc(C)c1NC(=O)CN1CCN(CCCC(c2ccc(F)cc2)c2ccc(F)cc2)CC1` registered an IC50 of over 46 µM.
The figure for `CC(C)COCC(CN(Cc1ccccc1)c1ccccc1)N1CCCC1` (stereo not given) is over 46 µM; for `Nc1c2c(nc3ccccc13)CCCC2` it is over 46 µM.
Then `Cl.NCC(O)c1cccc(O)c1` (stereo not given), with over 46 µM.
As for `Oc1ccc(Cl)cc1`, the IC50 is over 46 µM.
Then `CC(C)(O)C(Cl)(Cl)Cl`, with over 46 µM.
The figure for `C[C@@H](O)[C@H](N)C(=O)O` is over 46 µM; for `C[C@]12CC[C@H](OS(=O)(=O)[O][Na])CC1=CC[C@@H]1[C@@H]2CC[C@]2(C)C(=O)CC[C@@H]12.O.O` it is over 46 µM; for `Cc1nc2ccccc2n1Cc1ccc(Cl)cc1` it is over 46 µM.
The figure for `O=S(=O)([O-])CCCS(=O)(=O)[O-].[Na+].[Na+]` is over 46 µM; for `OS(C1=C(C(C)C)C=C3C([C@@]2(C)CCC[C@]([C@@](O)=O)(C)[C@@]([H])2CC3)=C1)(=O)=O` it is over 46 µM; for `O=C([O-])COc1nn(Cc2ccccc2)c2ccccc12.[Na+]` it is over 46 µM.
The compound `CNC(C)(C)Cc1ccccc1.CNC(C)(C)Cc1ccccc1.O=S(=O)(O)O` yielded a 50% inhibitory concentration (IC50) of over 46 µM.
With `CNC(=O)c1c(I)c(C(=O)NCC(=O)Nc2c(I)c(C(=O)O)c(I)c(C(=O)NCCO)c2I)c(I)c(N(C)C(C)=O)c1I`, the 50% inhibitory concentration (IC50) was over 46 µM.
The figure for `C#CCN(C)Cc1ccccc1.Cl` is over 46 µM; for `[H][C@]1(CC3)[C@]([H])4[C@]([C@@H]([C@@](C)=O)CC4)(C)CC[C@@]([H])1[C@]2(C)[C@]3([H])C[C@H](O)CC2` it is over 46 µM; for `O=C(O)Cc1cccc2ccccc12` it is over 46 µM.
